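Grown in 96-well plates, cells were treated for 48 hours with each compound at five concentrations. Insufficient inhibition: endpoint recorded as highest concentration tested. Here, GI50 denotes the concentration required for 50% inhibition of growth. Definition used: TGI = concentration required for complete inhibition of growth.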
Columns and labels:
Assay in all cases: growth of human tumour cells (NCI), 48 h
[1] = tested on: LOX IMVI melanoma
[2] = tested on: TK-10 renal
[3] = tested on: EKVX NSCLC
[4] = tested on: NCI/ADR-RES ovarian
[5] = tested on: DU-145 prostate
[6] = tested on: SN12C renal
[7] = tested on: SF-539 CNS
[8] = tested on: IGROV1 ovarian
[9] = tested on: MALME-3M melanoma
[10] = tested on: HOP-92 NSCLC
[11] = tested on: OVCAR-5 ovarian
[12] = tested on: SF-268 CNS
[13] = tested on: K-562 leukemia
[14] = tested on: COLO 205 colon
[15] = tested on: SK-OV-3 ovarian
[16] = tested on: MCF7 breast
[17] = tested on: SNB-19 CNS
[18] = tested on: HCT-15 colon
[19] = tested on: KM12 colon
[20] = tested on: T-47D breast
[21] = tested on: UO-31 renal
[22] = tested on: BT-549 breast
[23] = tested on: OVCAR-4 ovarian
[24] = tested on: HCT-116 colon
[25] = tested on: A549 NSCLC
[26] = tested on: NCI-H522 lung
[27] = tested on: MDA-MB-231 breast
[28] = tested on: MOLT-4 leukemia
[29] = tested on: SR leukemia
[30] = tested on: U251 CNS
[31] = tested on: MDA-MB-435
[32] = tested on: 786-0 renal
[33] = tested on: NCI-H460 lung
[34] = tested on: SNB-75 CNS
[35] = tested on: HOP-62 NSCLC
[36] = tested on: SW-620 colon
[37] = tested on: OVCAR-3 ovarian
[38] = tested on: M14 melanoma
[39] = tested on: RPMI-8226 leukemia
[40] = tested on: NCI-H226 lung
[41] = tested on: ACHN renal
[42] = tested on: HS 578T breast
[43] = tested on: HT29 colon
[44] = tested on: SF-295 CNS
[45] = tested on: NCI-H23 lung
[46] = tested on: SK-MEL-5 melanoma
[47] = tested on: OVCAR-8 ovarian
[48] = tested on: HCC-2998 colon
[49] = tested on: SK-MEL-28 melanoma
[50] = tested on: RXF 393 renal
[51] = tested on: PC-3 prostate
[52] = tested on: HL-60(TB) leukemia
[53] = tested on: MDA-N
[54] = tested on: CAKI-1 renal
[55] = tested on: UACC-257 melanoma
[56] = tested on: SK-MEL-2 melanoma
[57] = tested on: UACC-62 melanoma
[58] = tested on: A498 renal
[59] = tested on: CCRF-CEM leukemia

Question: Which TGI [1] does the source give for CC(=O)OCC1OC(n2c(-c3ccc(Cl)cc3)cc(-c3ccccc3)c(C#N)c2=S)C(OC(C)=O)C(OC(C)=O)C1OC(C)=O (stereo not given) here?
Answer: 17.8 µM

Question: And the TGI [2]?
Answer: 42.2 µM

Question: And the TGI [3]?
Answer: 31.9 µM

Question: What about the TGI [4] of the same compound?
Answer: 21 µM

Question: What about the TGI [5] of the same compound?
Answer: 35.6 µM

Question: And the TGI [6]?
Answer: 26.3 µM

Question: And the TGI [7]?
Answer: 14.6 µM

Question: And the TGI [8]?
Answer: 25.8 µM

Question: What about the TGI [9] of the same compound?
Answer: 7.71 µM

Question: And the TGI [10]?
Answer: 40.8 µM

Question: What about the TGI [11] of the same compound?
Answer: 35 µM

Question: What about the TGI [12] of the same compound?
Answer: 25.6 µM

Question: What about the TGI [13] of the same compound?
Answer: > 100 µM

Question: And the TGI [14]?
Answer: 33 µM

Question: What about the TGI [15] of the same compound?
Answer: 25.2 µM

Question: And the TGI [16]?
Answer: 67.8 µM

Question: And the TGI [17]?
Answer: 20.9 µM

Question: What about the TGI [18] of the same compound?
Answer: > 100 µM

Question: What about the TGI [19] of the same compound?
Answer: 48.7 µM

Question: And the TGI [20]?
Answer: 39.5 µM

Question: What about the TGI [21] of the same compound?
Answer: 40.1 µM

Question: And the TGI [22]?
Answer: 17.8 µM

Question: And the TGI [23]?
Answer: 3.3 µM

Question: And the TGI [24]?
Answer: 18.8 µM

Question: And the TGI [25]?
Answer: 27.9 µM

Question: What about the TGI [26] of the same compound?
Answer: 60.1 µM

Question: And the TGI [27]?
Answer: 15.7 µM

Question: And the TGI [28]?
Answer: 85.9 µM

Question: What about the TGI [29] of the same compound?
Answer: 53 µM

Question: And the TGI [30]?
Answer: 20.6 µM

Question: And the TGI [31]?
Answer: 25.2 µM

Question: And the TGI [32]?
Answer: 24.6 µM

Question: And the TGI [33]?
Answer: 17.9 µM

Question: And the TGI [34]?
Answer: 20.8 µM

Question: What about the TGI [35] of the same compound?
Answer: 20.5 µM

Question: What about the TGI [36] of the same compound?
Answer: 14.7 µM

Question: What about the TGI [37] of the same compound?
Answer: 22.4 µM

Question: And the TGI [38]?
Answer: 16.4 µM

Question: And the TGI [39]?
Answer: 43.3 µM

Question: And the TGI [40]?
Answer: 12 µM

Question: And the TGI [41]?
Answer: 26.2 µM

Question: What about the TGI [42] of the same compound?
Answer: 10.5 µM

Question: And the TGI [43]?
Answer: 21.1 µM

Question: And the TGI [44]?
Answer: 23.6 µM

Question: And the TGI [45]?
Answer: 27.2 µM

Question: What about the TGI [46] of the same compound?
Answer: 23.5 µM

Question: What about the TGI [47] of the same compound?
Answer: 23 µM

Question: What about the TGI [48] of the same compound?
Answer: 34.7 µM

Question: What about the TGI [49] of the same compound?
Answer: 23.4 µM

Question: What about the TGI [50] of the same compound?
Answer: 26 µM

Question: And the TGI [51]?
Answer: 23.3 µM

Question: And the TGI [52]?
Answer: 17.4 µM

Question: What about the TGI [53] of the same compound?
Answer: 24.3 µM

Question: What about the TGI [54] of the same compound?
Answer: 26.9 µM

Question: How did the TGI [1] turn out when O=[N+]([O-])c1ccc2c3c1[C@H]1O[C@H]1c1cccc(c1-3)[C@@H]1O[C@H]21 was run?
Answer: 1.28 µM

Question: And the TGI [2]?
Answer: > 30 µM

Question: And the TGI [3]?
Answer: 4.08 µM

Question: And the TGI [4]?
Answer: 5.65 µM

Question: And the TGI [5]?
Answer: 6.25 µM

Question: And the TGI [6]?
Answer: 4.69 µM

Question: And the TGI [7]?
Answer: 4.09 µM

Question: And the TGI [55]?
Answer: 4.87 µM

Question: And the TGI [9]?
Answer: 4.64 µM

Question: What about the TGI [10] of the same compound?
Answer: 5.03 µM

Question: And the TGI [11]?
Answer: 6.77 µM

Question: And the TGI [12]?
Answer: 4.38 µM

Question: And the TGI [13]?
Answer: > 100 µM

Question: And the GI50 [14]?
Answer: 1.72 µM

Question: What about the TGI [14] of the same compound?
Answer: 3.69 µM

Question: What about the TGI [15] of the same compound?
Answer: 11.6 µM

Question: And the GI50 [16]?
Answer: 2.78 µM

Question: What about the TGI [16] of the same compound?
Answer: > 100 µM

Question: And the TGI [17]?
Answer: 13.6 µM

Question: And the TGI [18]?
Answer: 4.47 µM

Question: What about the TGI [19] of the same compound?
Answer: 5.86 µM

Question: And the TGI [20]?
Answer: 6.18 µM

Question: What about the TGI [21] of the same compound?
Answer: 3.62 µM

Question: And the TGI [22]?
Answer: 3.89 µM

Question: And the TGI [23]?
Answer: 4.46 µM

Question: And the TGI [24]?
Answer: 3.59 µM

Question: And the TGI [25]?
Answer: 15.5 µM

Question: What about the TGI [26] of the same compound?
Answer: 3.42 µM

Question: What about the TGI [27] of the same compound?
Answer: 3.87 µM

Question: What about the TGI [28] of the same compound?
Answer: > 100 µM

Question: What about the TGI [29] of the same compound?
Answer: > 100 µM

Question: And the TGI [30]?
Answer: 3.98 µM

Question: What about the TGI [31] of the same compound?
Answer: 4.14 µM

Question: And the TGI [32]?
Answer: 3.56 µM

Question: And the TGI [34]?
Answer: 4.1 µM

Question: What about the TGI [35] of the same compound?
Answer: 10.8 µM

Question: What about the TGI [36] of the same compound?
Answer: 2.75 µM

Question: And the TGI [37]?
Answer: 6.2 µM

Question: And the TGI [38]?
Answer: 3.75 µM

Question: And the TGI [39]?
Answer: > 100 µM

Question: And the TGI [40]?
Answer: > 100 µM

Question: What about the TGI [56] of the same compound?
Answer: > 100 µM

Question: What about the TGI [41] of the same compound?
Answer: 5.17 µM

Question: And the TGI [42]?
Answer: 7.06 µM

Question: And the TGI [43]?
Answer: 6.57 µM

Question: And the TGI [44]?
Answer: 12.3 µM

Question: And the TGI [45]?
Answer: 3.88 µM

Question: What about the TGI [46] of the same compound?
Answer: 7.82 µM

Question: And the TGI [47]?
Answer: 3.24 µM

Question: And the TGI [57]?
Answer: 3.69 µM

Question: What about the TGI [49] of the same compound?
Answer: 6.73 µM

Question: What about the TGI [50] of the same compound?
Answer: 3.38 µM

Question: What about the TGI [51] of the same compound?
Answer: > 20 µM

Question: And the TGI [52]?
Answer: 8.85 µM

Question: What about the TGI [53] of the same compound?
Answer: 4.91 µM

Question: And the TGI [54]?
Answer: 3.73 µM

Question: What does the source list for COc1ccc(NC=O)c(C(=O)CCNC(C)=O)c1?
Answer: TGI [1]: > 100 µM; TGI [2]: > 100 µM; TGI [3]: > 100 µM; TGI [4]: > 100 µM; TGI [5]: > 100 µM; TGI [6]: > 100 µM; TGI [7]: > 100 µM; TGI [8]: > 100 µM; TGI [55]: > 100 µM; TGI [10]: > 100 µM; TGI [11]: > 100 µM; TGI [12]: > 100 µM; TGI [13]: > 100 µM; TGI [14]: > 100 µM; TGI [15]: > 100 µM; TGI [16]: > 100 µM; TGI [17]: > 100 µM; TGI [18]: > 100 µM; TGI [19]: > 100 µM; TGI [20]: > 100 µM; TGI [21]: > 100 µM; TGI [22]: > 100 µM; TGI [23]: > 100 µM; TGI [58]: > 100 µM; TGI [24]: > 100 µM; TGI [25]: > 100 µM; TGI [26]: > 100 µM; TGI [27]: > 100 µM; TGI [28]: > 100 µM; TGI [29]: > 100 µM; TGI [30]: > 100 µM; TGI [31]: > 100 µM; TGI [32]: > 100 µM; TGI [33]: > 100 µM; TGI [34]: > 100 µM; TGI [36]: > 100 µM; TGI [37]: > 100 µM; TGI [38]: > 100 µM; TGI [39]: > 100 µM; TGI [40]: > 100 µM; TGI [56]: > 100 µM; TGI [41]: > 100 µM; TGI [42]: > 100 µM; TGI [43]: > 100 µM; TGI [44]: > 100 µM; TGI [45]: > 100 µM; TGI [46]: > 100 µM; TGI [59]: > 100 µM; TGI [47]: > 100 µM; TGI [57]: > 100 µM; TGI [50]: > 100 µM; TGI [51]: > 100 µM; TGI [52]: > 100 µM; TGI [53]: > 100 µM; TGI [54]: > 100 µM

From PubChem BioAssay (NCI)
